Each block holds one compound with its values, some of them ahead of it.
Tests used:
IPOSS (morning glory) = test: Greenhouse herbicidal action, postemergence treatment; assay type: in vivo; details: 100 = complete destruction, 0 = no damage
From the text: (§1) The herbicidal action of the 2-phenylpyridazin-3-one compounds of the formula I could be shown by means of greenhouse experiments: […]
(§2) The cultivation containers used were plastic pots containing loamy sand with approximately 3.0% of humus as a substrate. The seeds of the test plants were sown separately according to species.
(§3) For the purpose of postemergence treatment, the test plants were first raised up to a growth height of 3 to 15 cm, depending on growth form, and then treated with the active compounds suspended or emulsified in water. For this, the test plants were either sown directly and raised in the same containers or they were first raised separately as seedlings and transplanted into the experimental containers a few days before the treatment. The application rate for the postemergence treatment was 15.6 or 7.8 g of a.s./ha.
(§4) The plants were kept species-specifically at temperature from 10-25° C. or 20-35° C. The experimental period extended over 2 to 4 weeks. During this time, the plants were tended, and their reaction to the individual treatments was assessed.
(§5) Assessment was carried out on a scale from 0 to 100. 100 here means no emergence of the plants or complete destruction of at least the above-ground parts and 0 means no damage or normal course of growth.
(§6) The plants used in the greenhouse experiments were made up of the following species:
(§7) The compound Ia.4 from Example 1 and the compound of Example 1-637 (X=H), disclosed in WO 97/07104, were tested in the postemergence process in the manner described.

COMBE (dayflower) = test: as above; assay type: in vivo; details: 100 = complete destruction, 0 = no damage
From the text: as §1, §2, §3, §4, §5, §6, §7

ABUTH (velvetleaf) = test: as above; assay type: in vivo; details: 100 = complete destruction, 0 = no damage
From the text: as §1, §2, §3, §4, §5, §6, §7

GALAP (catchweed) = test: as above; assay type: in vivo; details: 100 = complete destruction, 0 = no damage
From the text: as §1, §2, §3, §4, §5, §6, §7

[1] = system: BIDPI (hairy beggarticks); test: as above; assay type: in vivo; details: 100 = complete destruction, 0 = no damage
From the text: as §1, §2, §3, §4, §5, §6, §7

[2] = application rate 7.8 g/ha (a.s.)
[3] = application rate 15.6 g/ha (a.s.)

Structure (SMILES): CCOC(=O)C(Cl)=Cc1cc(-n2ncc(C(F)(F)F)c(C)c2=O)ccc1Cl [Ia.4, 2-[4-Chloro-3-(2-ethoxycarbonyl-2-chloroethen-1-yl)phenyl]-4-methyl-5-trifluoromethyl-2H-pyridazin-3-one]
Herbicidal action, assessment on a scale from 0 to 100 (IPOSS (morning glory); [2]): 100
Herbicidal action, assessment on a scale from 0 to 100 (IPOSS (morning glory); [3]): 100
Herbicidal action, assessment on a scale from 0 to 100 (COMBE (dayflower); [2]): 100
Herbicidal action, assessment on a scale from 0 to 100 (COMBE (dayflower); [3]): 100
Herbicidal action, assessment on a scale from 0 to 100 (ABUTH (velvetleaf); [2]): 100
Herbicidal action, assessment on a scale from 0 to 100 (ABUTH (velvetleaf); [3]): 100
Herbicidal action, assessment on a scale from 0 to 100 (GALAP (catchweed); [2]): 100
Herbicidal action, assessment on a scale from 0 to 100 (GALAP (catchweed); [3]): 100
Herbicidal action, assessment on a scale from 0 to 100 [1, 2]: 80
Herbicidal action, assessment on a scale from 0 to 100 [1, 3]: 98

Structure (SMILES): COCCOC(=O)C(Cl)=Cc1cc(-n2ncc(C(F)(F)F)c(C)c2=O)ccc1Cl [Ia.12, 2-{4-Chloro-3-[2-(2-methoxyethoxy)carbonyl-2-chloroethen-1-yl]phenyl}-4-methyl-5-trifluoromethyl-2H-pyridazin-3-one]
melting point: 60 to 62 °C

Structure (SMILES): Cc1c(C(F)(F)F)cnn(-c2ccc(Cl)c(C=C(Cl)C(=O)OCCC#N)c2)c1=O [Ia.16, 2-{4-Chloro-3-[2-(2-cyanoethoxy)carbonyl-2-chloroethen-1-yl]phenyl}-4-methyl-5-trifluoromethyl-2H-pyridazin-3-one]
melting point: 78 to 79 °C

More lines, now with the values ahead:

melting point: 62 to 63 °C
Structure (SMILES): C=CCOC(=O)C(Cl)=Cc1cc(-n2ncc(C(F)(F)F)c(C)c2=O)ccc1Cl [Ia.41, 2-[4-Chloro-3-(2-allyloxycarbonyl-2-chloroethen-1-yl)phenyl]-4-methyl-5-trifluoromethyl-2H-pyridazin-3-one]

melting point: 81 to 82 °C
Structure (SMILES): C#CCOC(=O)C(Cl)=Cc1cc(-n2ncc(C(F)(F)F)c(C)c2=O)ccc1Cl [Ia.42, 2-[4-Chloro-3-(2-propargyloxycarbonyl-2-chloroethen-1-yl)phenyl]-4-methyl-5-trifluoromethyl-2H-pyridazin-3-one]
